From patent publication US7128898B2, “Method of minimizing cell lysis and toothpaste and mouthwash with reduced irritancy” (priority 1999, dated 2006)

System: red blood cells
Test: Red blood cell haemolysis assay
Assay type: cell-based
Description: In order to determine the relative toxicity or irritancy levels of various toothpastes and mouthwashes, a red blood cell heamolysis assay was employed to obtain information on the effects of these substances on cell membrane integrity. The Red Blood Cell assay provides a simple test system that uses easily obtainable cells and is characterized by defined and objective endpoints. […] Haemoglobin release is a useful endpoint of cell membrane integrity. It is therefore highly suitable as a screening assay in a first-order in vitro test battery for the assessment of potential toxicity to tissue, including tissues of the oral cavity.
To assess the membranolytic activity of test materials. The test materials are incubated with isolated red blood cells. The degree of damage to the red blood cell membrane is quantified by spectro-photometric measurement of released haemoglobin.
Red blood cells are isolated concentrations of the test materials defined from results of a range finding study; released is measured at 541 nm and the concentration resulting in 50% hemolysis (relative to a totally lysed sample) calculated. […]
(b) After the final centrifugation, the packed cell volume is diluted with phosphate buffered saline (PBS) to give an approximate 2% erythrocyte suspension. […] The exact volume of PBS required for a 2% suspension is calculated from the optical density and adjusted accordingly. […]

How did the “% Hemolysis (Individual Components)” value (0.10% DHA) turn out when `CC(=O)C1C(=O)C=C(C)OC1=O` (centres unmarked) [DHA, dehydroacetic acid] was run?
Its value is 3.24%.

How did the “% Hemolysis (Individual Components)” value (0.05% CPC) turn out when `CCCCCCCCCCCCCCCC[n+]1ccccc1` [CPC, Cetylpyridinium Chloride] was run?
The value was 92.36%.
